Paper PMC5845004, “Novel (p)ppGpp Binding and Metabolizing Proteins of Escherichia coli” (mBio, 2018)
Where “and” joins values, the source holds several entries; their conditions need not be identical. Equal entries are not always repeated. Where two headings read alike, the source gives them in different places.

What was measured:
[1] = target: Der (Escherichia coli, UniProt P0A6P5); experiment: DRaCALA Kd determination, purified Der; type: binding, E. coli; settings: 2 nM 32P-labeled ligand, read-out: apparent Kd, Der
Procedure: For Kd measurements by DRaCALA, 2-fold serial dilutions from the highest possible concentrations of each purified protein were prepared in binding buffer B, and approximately 2 nM concentrations of α-^32P-labeled ppGpp, pppGpp, GTP, and GDP were added. The mixtures were incubated for 5 min at RT before spotting of 2 µl of the reaction mixtures onto nitrocellulose membranes. […] For competition assays, purified proteins at the specified concentrations were incubated with 2 nM [α-^32P]ppGpp or [α-^32P]pppGpp in the presence of 100 μM competitor nucleotides in binding buffer B. The reaction mixtures were incubated for 5 min at RT, 2 µl was spotted onto nitrocellulose membranes, and the values corresponding to the bound fractions were determined. EDTA was added at excess concentrations as specified for each case.

[2] = target: ObgE (Escherichia coli, UniProt P42641); experiment: DRaCALA Kd determination, purified ObgE; type: binding, E. coli; settings: 2 nM 32P-labeled ligand, read-out: apparent Kd, ObgE (converted)
Procedure: For Kd measurements by DRaCALA, 2-fold serial dilutions from the highest possible concentrations of each purified protein were prepared in binding buffer B, and approximately 2 nM concentrations of α-^32P-labeled ppGpp, pppGpp, GTP, and GDP were added. The mixtures were incubated for 5 min at RT before spotting of 2 µl of the reaction mixtures onto nitrocellulose membranes. The fractions of bound ligand and the apparent Kd values were calculated as previously described ([37]).

[3] = target: T1, UshA (Escherichia coli, UniProt P07024); experiment: DRaCALA competition assay, lysate with overexpressed UshA; type: binding; settings: cell lysate, 2 nM hot (p)ppGpp, 100 µM cold competitor
T1 sequence (P07024 26-550): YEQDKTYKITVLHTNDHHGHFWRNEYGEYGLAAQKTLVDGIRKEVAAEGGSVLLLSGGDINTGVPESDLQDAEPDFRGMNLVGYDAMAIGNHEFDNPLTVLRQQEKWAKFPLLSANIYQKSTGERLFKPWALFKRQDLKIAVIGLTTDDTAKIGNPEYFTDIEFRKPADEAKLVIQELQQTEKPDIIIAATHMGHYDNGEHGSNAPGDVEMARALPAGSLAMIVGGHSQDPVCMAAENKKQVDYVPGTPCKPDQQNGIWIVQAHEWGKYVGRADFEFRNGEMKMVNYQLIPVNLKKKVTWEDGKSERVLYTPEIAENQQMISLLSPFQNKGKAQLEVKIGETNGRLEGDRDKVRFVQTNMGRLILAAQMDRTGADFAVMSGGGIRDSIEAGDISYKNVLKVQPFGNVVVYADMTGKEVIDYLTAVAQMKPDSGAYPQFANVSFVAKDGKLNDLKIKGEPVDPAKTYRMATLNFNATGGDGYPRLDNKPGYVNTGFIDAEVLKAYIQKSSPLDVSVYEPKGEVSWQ
Procedure: Bacterial cells were collected and frozen at −80°C.

[4] = target: TrmE (Escherichia coli, UniProt P25522); experiment: In vitro cleavage assay (TLC), TrmE; type: biochemical, E. coli; settings: 10 µM TrmE, buffer B, with 100 mM potassium where stated, 10 min
Procedure: The purified His6-MutT and His6-NudG proteins were tested for their relative levels of cleavage of ppGpp compared to those seen with their native substrates. For this, a 1 μM concentration of each protein and a 10 nM concentration of [α-^32P]ppGpp were used together with 100 μM concentrations of cold competitors [ppGpp, GTP, ATP, 8-oxo-(d)GTP, 2-hydroxyl-(d)ATP] or 50 mM EDTA in buffer B. The samples were incubated at 30°C for 10 min and for 1 h before the reactions were stopped by adding 50 mM EDTA. The cleavage products were resolved by TLC as described above. The purified His6-NadR and His6-TrmE proteins were tested for their cleavage of both GTP and ppGpp. For cleavage of GTP, 10 μM concentrations of His6-MBP, His6-TrmE, and 20 μM His6-NadR proteins were used with 2 nM [α-^32P]GTP and 100 μM cold GTP in buffer B. For cleavage of ppGpp, 10 μM concentrations of His6-TrmE, His6-MBP, and His6-NadR proteins were used with 10 nM [α-^32P]ppGpp in buffer B. Of note, for His6-TrmE, another reaction was also performed in buffer B supplemented with 100 mM KCl. The reactions were performed at RT for 10 min and were stopped by adding 17% formic acid. The cleavage products were resolved by TLC as described above.
(§1) A 20 μM concentration of each of purified proteins MutT, NudG, NadR, TrmE, and MBP (as a negative control) was incubated with 100 μM ppGpp in buffer B (containing 40 mM Tris [pH 7.5], 100 mM NaCl, and 10 mM MgCl2) for 20 min at room temperature. Samples were snap-frozen on dry ice and analyzed with UPLC-MS afterward. All samples and buffers were stored at −80°C, thawed on ice, and kept at 4°C during analysis. For the analysis, a UPLC-quadrupole time of flight (UPLC-qTOF) method (Waters) was used. […] The detection conditions were as follows: photodiode array detector (PDA), […] (evaluated at 260 nm); MS, ionization; electrospray ionization (ESI+), scan, 200 to 800 m/z with lock mass correction. […]

[5] = target: NadR (Escherichia coli, UniProt P27278); experiment: In vitro cleavage assay (TLC), NadR; type: biochemical, E. coli; settings: 10-20 µM NadR, buffer B with 100 mM NaCl, 10 min
Procedure: The purified His6-MutT and His6-NudG proteins were tested for their relative levels of cleavage of ppGpp compared to those seen with their native substrates. For this, a 1 μM concentration of each protein and a 10 nM concentration of [α-^32P]ppGpp were used together with 100 μM concentrations of cold competitors [ppGpp, GTP, ATP, 8-oxo-(d)GTP, 2-hydroxyl-(d)ATP] or 50 mM EDTA in buffer B. The samples were incubated at 30°C for 10 min and for 1 h before the reactions were stopped by adding 50 mM EDTA. The cleavage products were resolved by TLC as described above. The purified His6-NadR and His6-TrmE proteins were tested for their cleavage of both GTP and ppGpp. […]
as §1, with “afterward.” for “afterward. All samples and buffers were stored at −80°C, thawed on ice, and kept at 4°C during analysis. For the analysis, a UPLC-quadrupole time of flight (UPLC-qTOF) method (Waters) was used.”

[6] = target: Hpt (Escherichia coli, UniProt P0A9M2); set-up: method as in ref 29-32 (Table S1 refs 1, 2); settings: ref 29-32 (Table S1 refs 1, 2); cited from earlier work
[7] = target: Apt (Escherichia coli, UniProt P69503); settings: cited from earlier work
[8] = target: HprT; set-up: method as in ref 39 (Table S1 ref 4); settings: ref 39 (Table S1 ref 4); read-out: Kd, S. aureus HprT; cited from earlier work
[9] = target: Gmk; set-up: method as in Table S1 (4); settings: ref Table S1 (4); read-out: Kd, S. aureus Gmk; cited from earlier work
[10] = target: EF-Tu; set-up: method as in Table S1 (9); settings: ref Table S1 (9); cited from earlier work
[11] = target: EF-G; set-up: method as in Table S1 (9); settings: ref Table S1 (9), cited from earlier work
[12] = target: LdcC; set-up: method as in Table S1 (19); settings: ref Table S1 (19); cited from earlier work
[13] = target: SpeC; set-up: method as in Table S1 (19); settings: ref Table S1 (19); cited from earlier work
[14] = tested on: GppA; set-up: method as in Table S1 (17); settings: ref Table S1 (17); cited from earlier work

Chain of Der (P0A6P5 whole entry): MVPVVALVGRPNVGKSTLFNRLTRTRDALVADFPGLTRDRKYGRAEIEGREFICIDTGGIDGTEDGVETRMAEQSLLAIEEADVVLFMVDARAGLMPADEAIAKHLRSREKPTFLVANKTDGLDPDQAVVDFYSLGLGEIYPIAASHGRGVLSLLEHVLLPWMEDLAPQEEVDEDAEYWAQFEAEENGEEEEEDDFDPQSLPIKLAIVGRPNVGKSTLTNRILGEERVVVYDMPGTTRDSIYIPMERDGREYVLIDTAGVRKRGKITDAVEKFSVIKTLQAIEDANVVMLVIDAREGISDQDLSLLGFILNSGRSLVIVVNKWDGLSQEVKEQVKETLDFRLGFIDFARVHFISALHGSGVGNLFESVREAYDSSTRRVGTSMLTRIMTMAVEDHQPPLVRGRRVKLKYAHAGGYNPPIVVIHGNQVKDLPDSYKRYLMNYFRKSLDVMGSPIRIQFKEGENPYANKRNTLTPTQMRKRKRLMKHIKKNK
Chain of ObgE (P42641 whole entry): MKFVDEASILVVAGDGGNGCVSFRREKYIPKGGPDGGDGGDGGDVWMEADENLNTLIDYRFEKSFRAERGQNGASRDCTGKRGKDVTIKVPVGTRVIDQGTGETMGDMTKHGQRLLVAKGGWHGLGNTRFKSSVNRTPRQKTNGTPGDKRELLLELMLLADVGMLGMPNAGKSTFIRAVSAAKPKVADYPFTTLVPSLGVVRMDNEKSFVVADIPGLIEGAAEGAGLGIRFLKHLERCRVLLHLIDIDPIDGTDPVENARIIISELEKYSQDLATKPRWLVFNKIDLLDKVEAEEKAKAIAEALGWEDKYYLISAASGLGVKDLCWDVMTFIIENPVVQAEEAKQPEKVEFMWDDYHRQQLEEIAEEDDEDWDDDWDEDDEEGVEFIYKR
Chain of Hpt (P0A9M2 whole entry): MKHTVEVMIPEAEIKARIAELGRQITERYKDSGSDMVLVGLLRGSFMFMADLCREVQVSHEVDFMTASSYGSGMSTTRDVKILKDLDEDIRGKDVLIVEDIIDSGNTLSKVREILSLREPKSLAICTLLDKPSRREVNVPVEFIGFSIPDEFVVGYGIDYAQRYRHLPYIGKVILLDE
Chain of TrmE (P25522 whole entry): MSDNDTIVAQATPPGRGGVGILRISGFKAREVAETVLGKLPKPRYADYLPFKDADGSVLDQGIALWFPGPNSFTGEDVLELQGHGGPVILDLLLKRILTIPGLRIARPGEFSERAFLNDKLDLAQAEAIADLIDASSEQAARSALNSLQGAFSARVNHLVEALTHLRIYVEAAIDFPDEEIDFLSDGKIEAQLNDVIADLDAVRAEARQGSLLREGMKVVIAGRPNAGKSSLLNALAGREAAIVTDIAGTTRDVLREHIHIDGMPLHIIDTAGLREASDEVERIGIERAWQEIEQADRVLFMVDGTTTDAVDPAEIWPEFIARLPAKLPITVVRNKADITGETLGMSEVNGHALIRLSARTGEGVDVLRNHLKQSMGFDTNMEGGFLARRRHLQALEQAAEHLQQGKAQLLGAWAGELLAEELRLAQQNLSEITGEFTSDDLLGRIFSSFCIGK
Chain of Apt (P69503 whole entry): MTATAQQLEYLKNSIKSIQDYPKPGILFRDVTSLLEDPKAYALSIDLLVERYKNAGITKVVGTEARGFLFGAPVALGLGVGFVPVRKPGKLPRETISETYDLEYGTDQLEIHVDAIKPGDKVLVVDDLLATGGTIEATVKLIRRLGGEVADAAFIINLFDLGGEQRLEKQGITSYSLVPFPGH
Chain of NadR (P27278 whole entry): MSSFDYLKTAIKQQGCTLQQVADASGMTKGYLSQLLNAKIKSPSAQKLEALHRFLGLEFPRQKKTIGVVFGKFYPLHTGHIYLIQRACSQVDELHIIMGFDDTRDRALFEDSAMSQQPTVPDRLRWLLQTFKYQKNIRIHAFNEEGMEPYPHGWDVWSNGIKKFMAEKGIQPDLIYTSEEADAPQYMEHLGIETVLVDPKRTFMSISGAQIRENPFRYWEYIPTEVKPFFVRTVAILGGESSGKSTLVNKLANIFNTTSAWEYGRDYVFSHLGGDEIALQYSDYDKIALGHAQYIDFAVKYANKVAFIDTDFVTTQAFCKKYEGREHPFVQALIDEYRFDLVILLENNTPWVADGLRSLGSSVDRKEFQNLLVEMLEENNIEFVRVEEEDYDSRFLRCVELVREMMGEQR

SMILES	Kd [1]	Kd [2]	competition for UshA-bound (p)ppGpp [3]	cleavage by TrmE [4]	cleavage by NadR [5]	IC50 [6]	IC50 [7]	Kd [8]	Kd [9]	Ki [10]	Ki ([11]; in the absence of EF-Ts)	Ki ([11]; in the presence of EF-Ts)	Kd [12]	Kd [13]	conversion by GppA [14]
Nc1nc2c(ncn2[C@@H]2O[C@H](COP(=O)(O)OP(=O)(O)O)[C@@H](OP(=O)(O)OP(=O)(O)O)[C@H]2O)c(=O)[nH]1 [ppGpp, guanosine tetraphosphate]	1.8 µM and 1.77 µM	1.8 ± 0.3 µM	could outcompete the bound, radiolabeled (p)ppGpp	converted most of ppGpp	converted most of ppGpp	~85 µM and 85 µM	~1500 µM	0.37 µM	6.02 µM	60 µM	0.7 µM	40 µM	0.1 to 0.5 µM	0.598 ± 0.068 µM	
Nc1nc2c(ncn2[C@@H]2O[C@H](COP(=O)(O)OP(=O)(O)OP(=O)(O)O)[C@@H](OP(=O)(O)OP(=O)(O)O)[C@H]2O)c(=O)[nH]1 [pppGpp, guanosine pentaphosphate]	6.9 ± 2.9 µM	6.6 µM	could outcompete the bound, radiolabeled (p)ppGpp					0.75 µM	4.01 µM						Convert pppGpp to ppGpp; (17)
